Experimental data as given in patent publication EP4707280A1, “1,4-CINEOLE DERIVATIVE AND INTERMEDIATE THEREOF, HERBICIDE CONTAINING SAID DERIVATIVE AS ACTIVE INGREDIENT, METHOD FOR USING HERBICIDE, AND METHOD FOR PREPARING AGROCHEMICAL COMPOSITION” (HOKKO CHEMICAL INDUSTRY CO., LTD., priority 2023, dated 2024).

Legend:
Assay type in all cases: in vivo
Digitaria ciliaris [1] = test: Test Example 4: herbicidal effect test by stem and leaf treatment in upland field; settings: 120 g per 10 ares, sprayed seven days after sowing, upland soil, 14 days after application; for inhibition at 1200 g/ha: Digitaria ciliaris, read-out: weed inhibition rate
Digitaria ciliaris [2] = test: Test Example 8: herbicidal effect test by stem and leaf treatment in upland field (low dose); settings: 7.5 g per 10 ares, sprayed seven days after sowing, upland soil, 14 days after application; for inhibition at 75 g/ha: Digitaria ciliaris, read-out: weed inhibition rate
Procedure: (§1) The present test was conducted in duplicate for each chemical concentration group, and the weed inhibition rate (%) was determined 14 days after chemical application using the following formula (Math. 1). [formula]
(§2) Pots with an area of 36 cm^2 were filled with upland soil (alluvial loam), twenty seeds each of weeds of Digitaria ciliaris, and Echinochloa crus-galli were uniformly mixed with the top 1 cm layer of soil and the surface was lightly pressed down. Seven days after sowing, an emulsifiable concentrate prepared according to Formulation Example 5 using the compound shown below was diluted with water, and the diluted solution was sprayed onto the soil surface at a rate of 100 liters per 10 ares. The amount of the active ingredient to be applied was equivalent to 7.5 g per 10 ares. Fourteen days after chemical application, the herbicidal effect was evaluated according to the same criteria as in Test Example 1.

Echinochloa crus-galli [3] = test: as above; settings: Echinochloa crus-galli; 7.5 g per 10 ares; sprayed seven days after sowing, upland soil; 14 days after application; read-out: weed inhibition rate
Procedure: as §1, §2

Echinochloa crus-galli [4] = test: Test Example 4: herbicidal effect test by stem and leaf treatment in upland field; settings: 120 g per 10 ares, sprayed seven days after sowing, upland soil, 14 days after application; for inhibition at 1200 g/ha: Echinochloa crus-galli, read-out: weed inhibition rate
[5] = tested on: Echinochloa crus-galli var. formosensis; test: Test Example 2: herbicidal effect test by application during growth period of paddy rice; settings: 120 g per 10 ares, applied seven days after sowing, flooded pots, 14 days after application; for inhibition at 1200 g/ha: Echinochloa crus-galli, read-out: weed inhibition rate
Procedure, shortened: (§3)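 Herbicidal effect was scored 14 days after treatment, in duplicate per concentration. Weeds sown 0–1 cm deep in puddled, fertilized paddy soil under about 3 cm of standing water received a water-diluted emulsifiable concentrate by dropper 7 days post-sowing, at 120 g a.i. per 10 ares.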

Scirpus juncoides [6] = test: as above; settings: Schoenoplectiella juncoides; 120 g per 10 ares; applied seven days after sowing, flooded pots; 14 days after application; read-out: weed inhibition rate
Procedure, shortened: as §3

Digitaria ciliaris [7] = test: Test Example 3: herbicidal effect test by soil application in upland field; settings: 120 g per 10 ares, sprayed one day after sowing, 14 days after application; for inhibition at 1200 g/ha: Digitaria ciliaris, read-out: weed inhibition rate
Procedure, shortened: (§4)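 Pre-emergence test: seeds mixed into top 1 cm of alluvial loam upland soil in pots; emulsifiable concentrate diluted in water sprayed on soil one day after sowing at 100 L/10 a, 120 g a.i./10 a. Weed inhibition rate (%) scored at 14 days, in duplicate.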

Echinochloa crus-galli [8] = test: as above; settings: 120 g per 10 ares, sprayed one day after sowing, 14 days after application; for inhibition at 1200 g/ha: Echinochloa crus-galli, read-out: weed inhibition rate
Procedure, shortened: as §4

[9] = tested on: Echinochloa crus-galli var. formosensis; test: Test Example 6: herbicidal effect test by application during growth period of paddy rice (low dose); settings: Echinochloa crus-galli; 7.5 g per 10 ares; applied seven days after sowing, flooded pots; 14 days after application; read-out: weed inhibition rate
Procedure: as §1
(§5) Wagner pots with an area of […] were filled with paddy soil, followed by addition of water and incorporation of chemical fertilizer (N:P:K = 16:16:16), after which puddling was performed. After that, seeds of Echinochloa crus-galli var. formosensis, broad-leaved weeds (Monochoria vaginalis), and Scirpus juncoides were sown at a depth of 0 cm to 1 cm, 30 seeds each. Immediately after sowing, the pots were flooded and a water depth of approximately 3 cm was maintained. Subsequent management was conducted in a glass greenhouse. Seven days after sowing, an emulsifiable concentrate prepared according to Formulation Example 5 using the compound shown below was diluted with water, and a specified amount of the diluted solution was applied by dropper. The amount of the active ingredient to be applied was equivalent to 7.5 g per 10 ares. The test was conducted in duplicate for each chemical concentration group, and the herbicidal effect was evaluated 14 days after chemical application using the same criteria as in Test Example 1.

[10] = tested on: Echinochloa crus-galli var. formosensis; test: Test Example 1: herbicidal effect test by soil application in paddy rice; settings: 120 g active ingredient per 10 ares, applied immediately after sowing, flooded pots, 14 days after application; for pest or weed control at 1200 g/ha: Echinochloa crus-galli, soil, 336 h, read-out: weed inhibition rate
Procedure, shortened: (§6)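 Weeds sown 0–1 cm deep (30 seeds each) into fertilized, puddled paddy soil in Wagner pots. Pots are flooded immediately, water held near 3 cm, and the diluted emulsifiable concentrate is dripped in at once, delivering 120 g active ingredient per 10 ares under glass-greenhouse management.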

Scirpus juncoides [11] = test: as above; settings: Schoenoplectiella juncoides, soil, 336 h; 120 g active ingredient per 10 ares; applied immediately after sowing, flooded pots; 14 days after application; read-out: weed inhibition rate
Procedure, shortened: as §6

[12] = tested on: Echinochloa crus-galli var. formosensis; test: Test Example 5: herbicidal effect test by soil application in paddy rice (low dose); settings: Echinochloa crus-galli, soil, 336 h; 7.5 g per 10 ares; applied immediately after sowing, flooded pots; 14 days after application; read-out: weed inhibition rate
Procedure: as §1
as §5, with “Immediately thereafter,” for “Seven days after sowing,”, “The test was conducted in duplicate for each chemical concentration group, and the herbicidal effect was evaluated 14 days after chemical application using the same criteria as in Test Example 1.” left out

COC(=O)c1ccccc1CO[C@@H]1C[C@]2(C(C)C)O[C@@]1(C)C[C@@H]2Br [1-709, methyl 2-[[(1S,2R,4R,5S)-5-bromo-1-methyl-4-isopropyl-7-oxabicyclo[2.2.1]heptan-2-yl]oxymethyl]benzoate]
≥ 80%: inhibition at 1200 g/ha (Digitaria ciliaris [1]) | inhibition at 75 g/ha (Digitaria ciliaris [2]) | inhibition at 75 g/ha (Echinochloa crus-galli [3]) | inhibition at 1200 g/ha (Echinochloa crus-galli [4])

CC(C)[C@]12C[C@@H](OCc3ccccc3C(=O)O)[C@](C)(C[C@@H]1Br)O2 [1-706, 2-[[(1S,2R,4R,5S)-5-bromo-1-methyl-4-isopropyl-7-oxabicyclo[2.2.1]heptan-2-yl]oxymethyl]benzoic acid]
≥ 80%: inhibition at 1200 g/ha (Digitaria ciliaris [1]) | inhibition at 75 g/ha (Digitaria ciliaris [2]) | inhibition at 75 g/ha (Echinochloa crus-galli [3]) | inhibition at 1200 g/ha (Echinochloa crus-galli [4])

COc1ccc(CO[C@@H]2C[C@]3(C(C)C)O[C@@]2(C)C[C@@H]3Br)cc1 [1-686, (1S,2R,4R,5S)-5-bromo-2-[(4-methoxyphenyl)methoxy]-1-methyl-4-isopropyl-7-oxabicyclo[2.2.1]heptane]
≥ 80%: inhibition at 1200 g/ha (Digitaria ciliaris [1]) | inhibition at 75 g/ha (Digitaria ciliaris [2]) | inhibition at 75 g/ha (Echinochloa crus-galli [3]) | inhibition at 1200 g/ha (Echinochloa crus-galli [4])

CC(C)[C@]12C[C@@H](OCC3CCCCC3)[C@](C)(C[C@@H]1I)O2 [1-736, (1R,2S,4S,5R)-5-(cyclohexylmethoxy)-2-iodo-1-isopropyl-4-methyl-7-oxabicyclo[2.2.1]heptane]
≥ 80%: inhibition at 1200 g/ha [5] | inhibition at 1200 g/ha (Scirpus juncoides [6]) | inhibition at 1200 g/ha (Digitaria ciliaris [1]) | inhibition at 1200 g/ha (Echinochloa crus-galli [4]) | inhibition at 1200 g/ha (Digitaria ciliaris [7]) | inhibition at 1200 g/ha (Echinochloa crus-galli [8]) | inhibition at 75 g/ha [9] | pest or weed control at 1200 g/ha [10] | pest or weed control at 1200 g/ha (Scirpus juncoides [11]) | inhibition at 75 g/ha [12]

CC(C)[C@]12C=C[C@](C)(O1)[C@H](OCc1ccccn1)C2 [3-738, 2-[[(1S,2R,4R)-1-methyl-4-isopropyl-7-oxabicyclo[2.2.1]hept-5-en-2-yl]oxymethyl]pyridine]
≥ 80%: inhibition at 1200 g/ha [5] | inhibition at 1200 g/ha (Scirpus juncoides [6]) | inhibition at 1200 g/ha (Digitaria ciliaris [1]) | inhibition at 1200 g/ha (Echinochloa crus-galli [4]) | inhibition at 1200 g/ha (Digitaria ciliaris [7]) | inhibition at 1200 g/ha (Echinochloa crus-galli [8]) | pest or weed control at 1200 g/ha [10] | pest or weed control at 1200 g/ha (Scirpus juncoides [11])

CC(C)[C@]12C[C@@H](OCc3ccccc3C(F)(F)F)[C@](C)(C[C@@H]1Br)O2 [1-700, (1S,2R,4R,5S)-5-bromo-l-methyl-4-isopropyl-2-[[2-(trifluoromethyl)phenyl]methoxy]-7-oxabicyclo[2.2.1]heptane]
≥ 80%: weed inhibition rate [5] | weed inhibition rate (Digitaria ciliaris [1]) | weed inhibition rate (Digitaria ciliaris [2]) | weed inhibition rate (Echinochloa crus-galli [4]) | weed inhibition rate (Digitaria ciliaris [7]) | weed inhibition rate (Echinochloa crus-galli [8]) | weed inhibition rate [10]

CC(C)C12CC(OCc3ccsc3)C(C)(CC1Br)O2 (stereo not shown) [1-1390, 5-bromo-1-methyl-4-isopropyl-2-(thiophen-3-ylmethoxy)-7-oxabicyclo[2.2.1]heptane]
≥ 80%: inhibition at 1200 g/ha [5] | inhibition at 1200 g/ha (Scirpus juncoides [6]) | inhibition at 1200 g/ha (Digitaria ciliaris [1]) | inhibition at 1200 g/ha (Echinochloa crus-galli [4]) | inhibition at 1200 g/ha (Digitaria ciliaris [7]) | inhibition at 1200 g/ha (Echinochloa crus-galli [8]) | pest or weed control at 1200 g/ha [10] | pest or weed control at 1200 g/ha (Scirpus juncoides [11])

CC#CCO[C@@H]1C[C@]2(C(C)C)O[C@@]1(C)CC2Br (stereo partly drawn) [1-1336, (1S,2R,4R)-5-bromo-2-but-2-ynoxy-1-methyl-4-isopropyl-7-oxabicyclo[2.2.1]heptane]
≥ 80%: inhibition at 1200 g/ha [5] | inhibition at 1200 g/ha (Scirpus juncoides [6]) | inhibition at 1200 g/ha (Digitaria ciliaris [1]) | inhibition at 1200 g/ha (Echinochloa crus-galli [4]) | inhibition at 1200 g/ha (Digitaria ciliaris [7]) | inhibition at 1200 g/ha (Echinochloa crus-galli [8]) | pest or weed control at 1200 g/ha [10] | pest or weed control at 1200 g/ha (Scirpus juncoides [11])

CC(C)[C@@]12C[C@H](OCc3ccccc3F)[C@@](C)(C[C@@H]1C)O2 [1-1222, (1R,2S,4S,5S)-2-[(2-fluorophenyl)methoxy]-1,5-dimethyl-4-isopropyl-7-oxabicyclo[2.2.1]heptane]
≥ 80%: inhibition at 75 g/ha (Echinochloa crus-galli [3]) | inhibition at 1200 g/ha (Echinochloa crus-galli [4])

CC#CCO[C@@H]1C[C@]2(C(C)C)O[C@@]1(C)C[C@@H]2Br [1-674, (1S,2R,4R,5S)-5-bromo-2-but-2-ynoxy-1-methyl-4-isopropyl-7-oxabicyclo[2.2.1]heptane]
≥ 80%: inhibition at 1200 g/ha [5] | inhibition at 1200 g/ha (Scirpus juncoides [6]) | inhibition at 1200 g/ha (Digitaria ciliaris [1]) | inhibition at 1200 g/ha (Echinochloa crus-galli [4]) | inhibition at 1200 g/ha (Digitaria ciliaris [7]) | inhibition at 1200 g/ha (Echinochloa crus-galli [8]) | inhibition at 75 g/ha [9] | pest or weed control at 1200 g/ha [10] | pest or weed control at 1200 g/ha (Scirpus juncoides [11]) | inhibition at 75 g/ha [12]

CC(C)[C@@]12C[C@H](OCc3ccccc3F)[C@@](C)(C[C@H]1C)O2 [1-1221, (1R,2S,4S,5R)-2-[(2-fluorophenyl)methoxy]-1,5-dimethyl-4-isopropyl-7-oxabicyclo[2.2.1]heptane]
≥ 80%: inhibition at 1200 g/ha (Digitaria ciliaris [1]) | inhibition at 75 g/ha (Digitaria ciliaris [2])

CCC[C@]1(O)C[C@]2(C)O[C@@]1(C(C)C)C[C@H]2OCc1ccccc1F [1-934, (1R,2S,4S,5R)-5-[(2-fluorophenyl)methoxy]-1-isopropyl-4-methyl-2-propyl-7-oxabicyclo[2.2.1]heptan-2-ol]
≥ 80%: inhibition at 1200 g/ha [5] | inhibition at 1200 g/ha (Digitaria ciliaris [1]) | inhibition at 75 g/ha (Echinochloa crus-galli [3]) | inhibition at 1200 g/ha (Echinochloa crus-galli [4])

Cc1cccc(C)c1CO[C@@H]1C[C@]2(C(C)C)O[C@@]1(C)C[C@@H]2Br [1-17, (1S,2R,4R,5S)-5-bromo-2-[(2,6-dimethylphenyl)methoxy]-1-methyl-4-isopropyl-7-oxabicyclo[2.2.1]heptane]
≥ 80%: inhibition at 1200 g/ha [5] | inhibition at 1200 g/ha (Digitaria ciliaris [1]) | inhibition at 75 g/ha (Echinochloa crus-galli [3]) | inhibition at 1200 g/ha (Echinochloa crus-galli [4]) | inhibition at 1200 g/ha (Digitaria ciliaris [7]) | inhibition at 1200 g/ha (Echinochloa crus-galli [8]) | pest or weed control at 1200 g/ha [10] | inhibition at 75 g/ha [12]

CC(C)[C@@]12C[C@H](OCc3ccccc3F)[C@@](C)(C[C@H]1Br)O2 [1-1028, (1R,2S,4S,5R)-5-bromo-2-[(2-fluorophenyl)methoxy]-1-methyl-4-isopropyl-7-oxabicyclo[2.2.1]heptane]
≥ 80%: inhibition at 1200 g/ha (Digitaria ciliaris [1]) | inhibition at 75 g/ha (Echinochloa crus-galli [3]) | inhibition at 1200 g/ha (Echinochloa crus-galli [4])
